# Assay results taken from patent publication US4816447A, “Anti-viral guanine compounds” (priority 1984, dated 1989).
# Key:
# Adeno Type 2 = test: Plaque inhibition, Adeno Type 2 on BSC cells (Table V); assay type: cell-based, Adeno Type 2; BSC (monkey) cells; conditions: for EC50: Primates, read-out: ED50, concentration required for 50% plaque inhibition, Adeno Type 2, BSC
# Experimental: (§1) ED50 values developed for the cyclic monophosphate are compared on a weight basis to those established for the compound of Formula II and acyclovir.
# Adeno Type 2 was assayed on BSC (monkey) cell cultures.
# HSV-1 WT = test: 50% plaque reduction of HSV-1 wild type in 3T3 TK- and 3T3 TK-/TK+HSV cells (Table VIII); conditions: for EC50: Human alphaherpesvirus 1, in Mus musculus, read-out: Antiviral Concentration, 50% plaque reduction
# HSV-1 PAA ®1 = test: microbe, parasite or virus in culture; conditions: Human alphaherpesvirus 1, read-out: ED50
# [1] = system: HSV-1 wild type (Schooler); test: Protection of mice against intraperitoneal infection with HSV-1 (Table IX); assay type: in vivo, HSV-1; mice; conditions: for Mean Survival Time (± SD): HSV-1, s.c. twice daily, 4 days; for protective efficacy over a 10^6 -fold virus challenge range: HSV-1 or HSV-1 (383R1)
# Experimental: (§2) 1. […] Groups of mice infected intraperitoneally with increasing doses of HSV-1 or HSV-1 (383R1) were treated twice daily subcutaneously for 4 days with either the Cyclic Monophosphate or the compound of Formula II. Mean survival times of treated mice were compared.
# SV40 = test: Plaque inhibition, SV40 on CV-1 cells (Table V); assay type: cell-based, SV40; CV-1 (monkey) cells; conditions: for EC50: Primates, read-out: ED50, concentration required for 50% plaque inhibition, SV40, CV-1
# Experimental: as §1
# SV40 was assayed on CV-1 (monkey) cell cultures.
# HSV-1 (383R1) = test: Protection of mice against intraperitoneal infection with HSV-1 (383R1) (Table IX); assay type: in vivo, HSV-1; mice; conditions: for Mean Survival Time (± SD): HSV-1 (383R1), s.c. twice daily, 4 days; for efficacy against HSV-1 (383R1) relative to wild type HSV-1: mouse, in vivo
# Experimental: as §2
# HSV-2 [2] = test: Vaginal HSV-2 infection in mice, oral treatment (Table VI); assay type: in vivo, HSV-2; ICR/Ha mice
# HSV-1 = test: Orofacial HSV-1 infection of hairless mice, oral or topical treatment (Table VI); assay type: in vivo, HSV-1; HRS mice
# HSV-2 [3] = test: Therapeutic efficacy against vaginal HSV-2 infection of mice (Table VII); assay type: in vivo, HSV-2; mice; conditions: for Survivors/Total: 0.55 μmoles oral gavage twice daily
# Experimental: d. HSV-2 vaginal infection in mice is progressive from local acute infection of the genital area to limb paralysis and eventual death. This is a consistent, reproducible model, but is more virulent and progressive than the human genital disease. Drug efficacy is determined ultimately by extension of animal survival time, and also by the limitation of progression of disease from acute local through paralysis to death. Animals are challenged using in excess of 10 lethal equivalent doses of HSV-2. This model was used to evaluate dosing by oral gavage.
# [4] = system: guanosine monophosphate kinase and extract of HSV1-infected HeLa cells; assay type: biochemical; conditions: gmp kinase, 4 h
# Experimental: To the rest of the incubation mixtures were now added 0.04 units of guanosine monophosphate kinase and 20 μl of an extract of HSV1-infectedHeLa cells [The cells were infected with the virus at a multiplicity of 10 and harvested 8 hours later; they were suspended in a solution containing 0.35M KH2 PO4, pH 7.5, 0.5 mM dithiothreitol, 0.2% polyoxyethylene(9)octylphenol (Nonidet P-40), 14% glycerol at 50 mg/ml and after 30 minutes at 4° were centrifuged at […]; the supernatant liquid was the crude extract.] Incubation was continued at 30° for 4 more hours, after which samples were analyzed by HPLC and the amount of the triphosphate derivatives of each compound determined by integration of the area under the respective chromatographic peak.
# Epstein-Barr virus (EBV) = test: Human cord blood lymphocyte transformation assay; assay type: cell-based, Epstein-Barr (B95-8); human cord blood lymphocytes; conditions: human gammaherpesvirus 4, B-95-8; B95-8, lymphocyte transformation; read-out: Minimum Effective Concentration
# Text: ^c Human cord blood lymphocyte transformation assay.
# [5] = system: Herpes simplex virus type 2 (Strain Curtis); test: Vaginal Herpes simplex virus type 2 infection in mice, oral treatment (Table XII); assay type: in vivo, Herpes simplex virus type 2; ICR/Ha female mice; conditions: for Percent Survival: at 19 days
# Experimental: Groups of 10 animals were treated twice daily for ten days by oral gavage using acycloquanosine or the compound of formula II at final daily doses of 50, 12.5, 3.1, 0.8 or 0.2 mg/kg starting immediately following infection. The average number of days to infection and the average days of survival were determined for each group and compared to an infected, placebo-treated group.
# [6] = system: Herpes simplex virus type 1 (Strain S); test: Orofacial Herpes simplex virus type 1 infection in mice, therapeutic oral treatment (Table XIV); assay type: in vivo, Herpes simplex virus type 1; HRS (hairless) mice; conditions: for Lesion Incidence (%) / Lesion Incidence (number/Total) / Lesion Severity (scale 0 to 4): 12.5 mg/kg/day oral
# Experimental: Twenty gram HRS (hairless) mice were infected on the abraded orofacial area with Herpes simplex virus type 1 (Strain S).
# a. Groups of 10 infected animals were treated twice daily by oral gavage for up to 7 days with the compound of formula II at 12.5 mg/kg/day, starting 3, 8, 12, 24, 48, 72, or 96 hours after infection. […]
# At 7 days after initiation of infection, the extent of lesion development in the orofacial area was measured on a scale of 0 (no lesions) to 4 (massive lesions over the entire snout).
smiles,measurement,setting,value
"Nc1nc2c(ncn2COC2COP(=O)(O)OC2)c(=O)[nH]1 (stereo not shown) [Cyclic Monophosphate, Potassium 9-(1,3-dihydroxy-2-propoxymethyl)guanine cyclic monophosphate]",EC50,Adeno Type 2,3 µg/mL
same,inhibition of DNA virus,Adeno Type 2; adenovirus,inhibitory
same,susceptibility of HSV-1 greater than HSV-1 (383R1),HSV-1 WT,about 5 fold
same,EC50,HSV-1 WT,0.2 µg/mL
same,EC50,HSV-1 PAA ®1,3.2 µg/mL
same,Mean Survival Time (± SD),[1],12.65 (0.84)
same,protective efficacy over a 10^6 -fold virus challenge range,[1],no significant difference in protective efficacy
same,EC50,SV40,6 µg/mL
same,inhibition of DNA virus,SV40; SV40,inhibitory
same,Mean Survival Time (± SD),HSV-1 (383R1),13.42 (0.82)
same,efficacy against HSV-1 (383R1) relative to wild type HSV-1,HSV-1 (383R1),equally effective
same,minimal effective dose,"HSV-2 [2]; Human alphaherpesvirus 2, vaginal infection, oral treatment, read-out: Min. Effective Dose",0.8 mg/kg/day
same,efficacy relative to acyclovir by minimum effective dose,HSV-2 [2]; vaginal,consistently more efficacious than acyclovir
same,minimal effective dose,"HSV-1; Human alphaherpesvirus 1, orofacial infection, oral treatment, read-out: Min. Effective Dose",3.1 mg/kg/day
same,efficacy relative to acyclovir by minimum effective dose,HSV-1; orofacial,consistently more efficacious than acyclovir
same,Min. Effective Dose,"HSV-1; orofacial infection, topical treatment",0.06%
same,Survivors/Total,HSV-2 [3]; treatment initiated 0 hrs after infection,8/10
same,Survivors/Total,HSV-2 [3]; treatment initiated 24 hrs after infection,3/10
same,Survivors/Total,HSV-2 [3]; treatment initiated 48 hrs after infection,2/10
same,Survivors/Total,HSV-2 [3]; treatment initiated 72 hrs after infection,3/10
same,"therapeutic effectiveness, treatment initiated up to 72 hours after infection",HSV-2 [3]; vaginal HSV-2,therapeutically effective
"Nc1nc2c(ncn2COC(CO)CO)c(=O)[nH]1 [Compound of Formula II, 9-(1,3-Dihydroxy-2-propoxymethyl)guanine]",converted to the triphosphate,[4],93%
same,minimal effective concentration,Epstein-Barr virus (EBV),1 to 5 µg/mL
same,EC50,Adeno Type 2,50 µg/mL
same,Avg. Survival Time,[5]; 0.2 mg/kg/day oral,12.1 days
same,Percent Survival,[5]; 0.2 mg/kg/day oral,30%
same,Avg. Survival Time,[5]; 0.8 mg/kg/day oral,15.1 days
same,Percent Survival,[5]; 0.8 mg/kg/day oral,40%
same,Avg. Survival Time,[5]; 3.1 mg/kg/day oral,19.1 days
same,Percent Survival,[5]; 3.1 mg/kg/day oral,75%
same,Avg. Survival Time,[5]; 12.5 mg/kg/day oral,24.7 days
same,Percent Survival,[5]; 12.5 mg/kg/day oral,100%
same,number of days to infection vs placebo,[5]; 50 mg/kg and 12.5 mg/kg,statistically significant increases in the number of days to infection
same,signs of herpetic infection,"[5]; 50 mg/kg, duration of the test",remained free of signs of herpetic infection
same,Avg. Survival Time,[5]; 50 mg/kg/day oral,24.7 days
same,Percent Survival,[5]; 50 mg/kg/day oral,100%
same,survival time vs placebo,"[5]; 50, 12.5, 3.1 and 0.8 mg/kg",statistically significant increase in survival time
same,survival rate vs placebo,"[5]; 50, 12.5 and 3.1 mg/kg",statistically significantly increased
same,relative potency to acycloguanosine as measured by survival,[5]; statistically significant,28.1
same,relative potency to acycloguanosine as measured by time to infection,[5]; statistically significant,4.14
same,EC50,HSV-1 WT,0.06 µg/mL
same,EC50,HSV-1 PAA ®1,0.1 µg/mL
same,Mean Survival Time (± SD),[1],12.55 (0.88)
same,protective efficacy over a 10^6 -fold virus challenge range,[1],no significant difference in protective efficacy
same,EC50,SV40,> 100 µg/mL
same,Mean Survival Time (± SD),HSV-1 (383R1),9.05 (0.80)
same,efficacy against HSV-1 (383R1) relative to wild type HSV-1,HSV-1 (383R1),significantly lower
same,Lesion Incidence (%),[6]; start 3 hours post infection,60%
same,Lesion Incidence (number/Total),[6]; start 3 hours post infection,6/10
same,Lesion Severity (scale 0 to 4),[6]; start 3 hours post infection,1.30
same,Lesion Incidence (%),[6]; start 8 hours post infection,30%
same,Lesion Incidence (number/Total),[6]; start 8 hours post infection,3/10
same,Lesion Severity (scale 0 to 4),[6]; start 8 hours post infection,0.55
same,Lesion Incidence (%),[6]; start 12 hours post infection,50%
same,Lesion Incidence (number/Total),[6]; start 12 hours post infection,5/10
same,Lesion Severity (scale 0 to 4),[6]; start 12 hours post infection,0.55
same,Lesion Incidence (%),[6]; start 24 hours post infection,40%
same,Lesion Incidence (number/Total),[6]; start 24 hours post infection,4/10
same,Lesion Severity (scale 0 to 4),[6]; start 24 hours post infection,0.40
same,Lesion Incidence (%),[6]; start 48 hours post infection,90%
same,Lesion Incidence (number/Total),[6]; start 48 hours post infection,9/10
same,Lesion Severity (scale 0 to 4),[6]; start 48 hours post infection,1.50
same,Lesion Incidence (%),[6]; start 72 hours post infection,80%
same,Lesion Incidence (number/Total),[6]; start 72 hours post infection,8/10
same,Lesion Severity (scale 0 to 4),[6]; start 72 hours post infection,2.55
same,Lesion Incidence (%),[6]; start 96 hours post infection,100%
same,Lesion Incidence (number/Total),[6]; start 96 hours post infection,10/10
same,Lesion Severity (scale 0 to 4),[6]; start 96 hours post infection,3.85
same,incidence of lesion development vs placebo,"[6]; start 8, 12 and 24 hours after infection",statistically significant lower incidence of lesion development
same,lesion scores vs placebo,[6]; start as late as 72 hours after infection,statistically significant lower lesion scores
